This is an account of results in patent publication US5264565A, “Nucleic acid encoding the D2 /Ml chimeric receptor” (Affymax Technologies, N.V., priority 1991, dated 1993).

One assay addresses D2 /ml receptor. Briefly: Competition binding assay with [3H]-spiperone, D2/ml chimeric receptor. The arrangement: species or system human. As to conditions: for Ki: D2/ml Receptor, 0.5 nM [3H]-spiperone, anti-log of mean log Ki, three experiments, Cheng-Prusoff. As for the experimental part: (§1) Cells were detached from culture flasks with EDTA, pelleted at 1,000×g and resuspended in 1× binding buffer (100 mM Tris; 120 mM NaCl; 5 mM KCl; 1 mM MgCl2; 2 mM CaCl2; 1.1 mM ascorbic acid; pH 7.4) at ~1×10^6 cells/ml. Cells were homogenized with a Polytron (Brinkman) and the crude membrane fraction was pelleted at 17,000× g for 10 min. […] Triplicate binding reactions were done in IX binding buffer for 30 min. at 37°, then stopped by filtration through glass-fiber filters (Skatron) that were pre-soaked in 0.1% polyethyleneimine, followed by a 5 sec. wash with ice cold 0.1× binding buffer. […] Competing ligands were all from Research Biochemicals Inc.

Assay [1] deals with T1, D2(414) receptor (Homo sapiens, UniProt P14416). As to conditions: dopamine 100 μM, CHO cells expressing D2(414) receptor (FIG. 3A).
A further assay has as its system D2 /ml chimeric receptor. To be noted: dopamine 0.1-1000 μM, CHO cells expressing D2/ml receptor (FIG. 3B).
Assay [2] concerns non-transfected CHO cells. Briefly: [Ca+2]i assay (Fura-2) in non-transfected CHO cells.
For assay [3], the target named is T1, D2(414) receptor. Briefly: Competition binding assay with [3H]-spiperone, D2(414) receptor. The arrangement: expressed in transfected cells. On the procedure:
as §1

For a further assay, the system named is CHO cells. Briefly: Radioligand specific binding in non-transfected CHO cells. On the set-up: species or system Chinese hamster. As to conditions: preliminary studies. As for the experimental part:
Cells were detached from culture flasks with EDTA, pelleted at 1,000×g and resuspended in 1× binding buffer (100 mM Tris; 120 mM NaCl; 5 mM KCl; 1 mM MgCl2; 2 mM CaCl2; 1.1 mM ascorbic acid; pH 7.4) at ~1×10^6 cells/ml. Cells were homogenized with a Polytron (Brinkman) and the crude membrane fraction was pelleted at 17,000× g for 10 min. […] Triplicate binding reactions were done in IX binding buffer for 30 min. at 37°, then stopped by filtration through glass-fiber filters (Skatron) that were pre-soaked in 0.1% polyethyleneimine, followed by a 5 sec. wash with ice cold 0.1× binding buffer.

T1 sequence (P14416 1-414 isoform P14416-2): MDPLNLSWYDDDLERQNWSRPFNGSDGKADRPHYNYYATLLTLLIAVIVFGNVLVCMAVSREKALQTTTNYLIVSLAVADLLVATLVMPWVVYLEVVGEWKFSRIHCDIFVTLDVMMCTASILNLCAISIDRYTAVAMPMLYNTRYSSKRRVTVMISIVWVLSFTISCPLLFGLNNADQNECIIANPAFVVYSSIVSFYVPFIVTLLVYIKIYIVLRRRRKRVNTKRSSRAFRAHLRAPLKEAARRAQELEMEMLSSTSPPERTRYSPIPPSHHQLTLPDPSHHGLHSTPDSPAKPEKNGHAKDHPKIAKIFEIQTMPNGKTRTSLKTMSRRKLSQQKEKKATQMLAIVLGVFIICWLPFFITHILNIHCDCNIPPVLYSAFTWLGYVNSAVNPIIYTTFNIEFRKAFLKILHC

On to `CCN1CCC[C@H]1CNC(=O)c1cc(S(N)(=O)=O)ccc1OC` [(-) Sulpiride], for which, on D2 /ml receptor, the Ki (usually the equilibrium dissociation constant of an inhibitor or competing ligand from its target) was found to be 45 nM.
As for `NCCc1ccc(O)c(O)c1` [Dopamine], the “[Ca+2]i” value is on record as “failed to alter” at D2(414) receptor [1] and “unaltered” in assay [2] (dopamine 1 mM). Also, the Ki on D2 /ml receptor was determined as 2100 nM. Besides, the “[Ca+2]i response” value with D2 /ml chimeric receptor is “elevated in a dose dependent manner”.
In turn, `CCCN(CCc1ccccc1)C1CCc2c(O)cccc2C1` (stereo not drawn) [N-0434] showed a Ki at D2 /ml receptor of 27 nM.
With `CN1CCc2cc(Cl)c(O)cc2[C@@H](c2ccccc2)C1` [SCH-23390], the Ki stood at 3600 nM at D2 /ml receptor and 2100 nM on D2(414) receptor [3]. In addition, the “Difference in Ki between D2(414) and D2/ml receptor” value on D2 /ml receptor (comparison of Ki at the two receptors, t-test) was “small”.
Take `Oc1cc2c(cc1O)C(c1ccccc1)CNCC2` (stereo not drawn) [SKF-38393]: the affinity on D2 /ml receptor corresponds to a Ki of 36000 nM.
Turning to `O=C(CCCN1CCC2(CC1)C(=O)NCN2c1ccccc1)c1ccc(F)cc1` [[^3 H]-spiperone], the Specific binding result with CHO cells was “no detectable specific binding”.
`C[N+](C)(C)CCOC(N)=O` [carbachol]: the “[Ca+2]i” value in assay [2] (carbachol 100 μM) was “unaltered”.
